# Measured values reported in patent publication US20260355196A1, “INHIBITORS AND DEGRADERS OF PIP4K PROTEIN” (Larkspur Biosciences, Inc., priority 2023, published 2026).
# pIC50: −log10 of the molar value.
# Biological target: T1, PIP4K2C (Homo sapiens, UniProt Q8TBX8)
# T1 sequence (Q8TBX8 1-421): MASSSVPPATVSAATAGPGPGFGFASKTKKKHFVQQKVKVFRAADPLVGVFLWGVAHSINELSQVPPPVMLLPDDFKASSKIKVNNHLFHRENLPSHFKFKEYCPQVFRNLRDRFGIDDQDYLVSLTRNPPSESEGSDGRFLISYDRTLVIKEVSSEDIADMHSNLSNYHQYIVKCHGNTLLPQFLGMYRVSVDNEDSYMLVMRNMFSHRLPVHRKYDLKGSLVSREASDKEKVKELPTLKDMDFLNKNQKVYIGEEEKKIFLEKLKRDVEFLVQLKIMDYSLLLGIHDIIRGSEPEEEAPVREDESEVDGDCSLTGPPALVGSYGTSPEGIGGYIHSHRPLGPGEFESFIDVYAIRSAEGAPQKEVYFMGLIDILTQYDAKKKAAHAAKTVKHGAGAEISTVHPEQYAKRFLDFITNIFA
# Assay: Enzyme Binding Assay (KINOMEscan): active site-directed competition binding to an immobilized ligand
# Design: purchased Eurofins DiscoverX, San Diego, CA 87-0007-1094
# Details: 11-point dose response, duplicate, top concentration 5 micromolar; read-out: Pip4k2c Kd: IC50
# Summary of the method: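 IC50 values come from Hill-equation fits (Levenberg-Marquardt) to 11-point duplicate titrations starting at 5 micromolar. Read-out is competition of compound with an immobilized ligand for the kinase active site.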
row,SMILES,pIC50
1,"CC(=O)N1CCC(Nc2ncc(F)c(-c3cccc(-c4ncc[nH]4)c3)n2)CC1 [Compound 239, 1-(4-((4-(3-(1H-imidazol-2-yl)phenyl)-5-fluoropyrimidin-2-yl)amino)piperidin-1-yl)ethan-1-one]",> 6.30
2,"NC(=O)[C@H]1CC[C@H](Nc2ncc(F)c(-c3cccc(-n4ccccc4=O)c3)n2)CC1 [Compound 240, trans-(1r,4r)-4-((5-fluoro-4-(3-(2-oxopyridin-1 (2H)-yl)phenyl)pyrimidin-2-yl)amino)cyclohexane-1-carboxamide]",> 6.30
3,"CC(=O)N[C@H]1CC[C@H](Nc2ncc(F)c(-c3ccnc(C(C)(C)O)c3)n2)CC1 [Compound 241, trans-N-(4-((5-fluoro-4-(2-(2-hydroxypropan-2-yl)pyridin-4-yl)pyrimidin-2-yl)amino)cyclohexyl)acetamide]",> 6.30
4,"NC(=O)[C@@H]1CCC[C@H](Nc2ncc(F)c(-c3ccnc(C4(O)CCC4)c3)n2)C1 [Compound 244, (1R,3S)-3-((5-fluoro-4-(2-(1-hydroxycyclobutyl)pyridin-4-yl)pyrimidin-2-yl)amino)cyclohexane-1-carboxamide]",> 6.30
5,"NC(=O)[C@H]1CC[C@H](Nc2ncc(F)c(-c3cccc(-n4cc(C(F)(F)F)ccc4=O)c3)n2)CC1 [Compound 246, trans-4-((5-fluoro-4-(3-(2-oxo-5-(trifluoromethyl)pyridin-1 (2H)-yl)phenyl)pyrimidin-2-yl)amino)cyclohexane-1-carboxamide]",> 6.30
6,"CC(=O)N[C@H]1CC[C@H](Nc2ncc(F)c(-c3cccc(N4CCCC4=O)c3)n2)CC1 [Compound 248, trans-N-(4-((5-fluoro-4-(3-(2-oxopyrrolidin-1-yl)phenyl)pyrimidin-2-yl)amino)cyclohexyl)acetamide]",> 6.30
7,"CC(=O)N[C@H]1CC[C@H](Nc2ncc(F)c(-c3cccc(N4CCC(O)CC4)c3)n2)CC1 [Compound 250, trans-N-(4-((5-fluoro-4-(3-(4-hydroxypiperidin-1-yl)phenyl)pyrimidin-2-yl)amino)cyclohexyl)acetamide]",> 6.30
8,"NC(=O)[C@H]1CC[C@H](Nc2ncc(F)c(-c3cccc(N4CCC(O)CC4)c3)n2)CC1 [Compound 251, trans-4-((5-fluoro-4-(3-(4-hydroxypiperidin-1-yl)phenyl)pyrimidin-2-yl)amino)cyclohexane-1-carboxamide]",> 6.30
9,"CC(=O)N[C@H]1CC[C@H](Nc2ncc(F)c(-c3cccc(C(=O)N4CC[C@H](O)C4)c3)n2)CC1 [Compound 252, trans-N-[4-[[5-fluoro-4-[3-[(3S)-3-hydroxypyrrolidine-1-carbonyl]phenyl]pyrimidin-2-yl]amino]cyclohexyl]acetamide]",> 6.30
10,"CC(=O)N[C@H]1CC[C@H](Nc2ncc(F)c(-c3ccnc(N4CCOC4=O)c3)n2)CC1 [Compound 253, trans-N-((1r,4r)-4-((5-fluoro-4-(2-(2-oxooxazolidin-3-yl)pyridin-4-yl)pyrimidin-2-yl)amino)cyclohexyl)acetamide]",> 6.30
11,"CC(=O)N[C@H]1CC[C@H](Nc2ncc(F)c(-c3cccc(-c4ccc[nH]c4=O)c3)n2)CC1 [Compound 255, N-(trans-4-((5-fluoro-4-(3-(2-oxo-1,2-dihydropyridin-3-yl)phenyl)pyrimidin-2-yl)amino)cyclohexyl)acetamide]",> 6.30
12,"CC(=O)N[C@H]1CC[C@H](Nc2ncc(F)c(-c3ccnc(N4CCCCC4=O)c3)n2)CC1 [Compound 257, trans-N-(-4-((5-fluoro-4-(2-(2-oxopiperidin-1-yl)pyridin-4-yl)pyrimidin-2-yl)amino)cyclohexyl)acetamide]",> 6.30
13,"NC(=O)[C@H]1CC[C@H](Nc2ncc(F)c(-c3ccnc(N4CCCCC4=O)c3)n2)CC1 [Compound 258, trans-4-((5-fluoro-4-(2-(2-oxopiperidin-1-yl)pyridin-4-yl)pyrimidin-2-yl)amino)cyclohexane-1-carboxamide]",> 6.30
14,"CC(=O)N[C@H]1CC[C@H](Nc2ncc(F)c(-n3cc(-n4ccccc4=O)cn3)n2)CC1 [Compound 260, trans-N-((1r,4r)-4-((5-fluoro-4-(4-(2-oxopyridin-1 (2H)-yl)-1H-pyrazol-1-yl)pyrimidin-2-yl)amino)cyclohexyl)acetamide]",5.30 to 6.00
15,"NC(=O)[C@H]1CC[C@H](Nc2ncc(F)c(-c3ccnc(N4CCOC4=O)c3)n2)CC1 [Compound 263, trans-(1r,4r)-4-((5-fluoro-4-(2-(2-oxooxazolidin-3-yl)pyridin-4-yl)pyrimidin-2-yl)amino)cyclohexane-1-carboxamide]",> 6.30
16,"CC(=O)N[C@H]1CC[C@H](Nc2ncc(F)c(-c3ccnc(-n4ccccc4=O)c3)n2)CC1 [Compound 265, trans-N-(4-((5-fluoro-4-(2-oxo-2H-[1,2′-bipyridin]-4′-yl)pyrimidin-2-yl)amino)cyclohexyl)acetamide]",> 6.30
17,"CC(=O)N[C@H]1CC[C@H](Nc2ncc(F)c(-c3ccnc(N4CCCOC4=O)c3)n2)CC1 [Compound 266, trans-N-(4-((5-fluoro-4-(2-(2-oxo-1,3-oxazinan-3-yl)pyridin-4-yl)pyrimidin-2-yl)amino)cyclohexyl)acetamide]",> 6.30
18,"CC(=O)N[C@H]1CC[C@H](Nc2ncc(F)c(-c3cccc(N4CCOCC4=O)n3)n2)CC1 [Compound 270, trans-N-(4-((5-fluoro-4-(6-(3-oxomorpholino)pyridin-2-yl)pyrimidin-2-yl)amino)cyclohexyl)acetamide]",> 6.30

# Now from value to compound:
row,pIC50,SMILES
1,> 6.30,"CC(C)(O)c1cc(-c2nc(N[C@H]3CC[C@H](C(N)=O)CC3)ncc2F)ccn1 [Compound 242, trans-4-((5-fluoro-4-(2-(2-hydroxypropan-2-yl)pyridin-4-yl)pyrimidin-2-yl)amino)cyclohexane-1-carboxamide]"
2,> 6.30,"NC(=O)[C@H]1CC[C@H](Nc2ncc(F)c(-c3ccnc(C4(O)CCC4)c3)n2)CC1 [Compound 243, trans-4-((5-fluoro-4-(2-(1-hydroxycyclobutyl)pyridin-4-yl)pyrimidin-2-yl)amino)cyclohexane-1-carboxamide]"
3,> 6.30,"NC(=O)[C@H]1CC[C@H](Nc2ncc(F)c(-c3cccc(N4CCOC4=O)c3)n2)CC1 [Compound 245, trans-4-((5-fluoro-4-(3-(2-oxooxazolidin-3-yl)phenyl)pyrimidin-2-yl)amino)cyclohexane-1-carboxamide]"
4,> 6.30,"Cc1ccc(=O)n(-c2cccc(-c3nc(N[C@H]4CC[C@H](C(N)=O)CC4)ncc3F)c2)c1 [Compound 247, trans-4-((5-fluoro-4-(3-(5-methyl-2-oxopyridin-1 (2H)-yl)phenyl)pyrimidin-2-yl)amino)cyclohexane-1-carboxamide]"
5,> 6.30,"NC(=O)[C@H]1CC[C@H](Nc2ncc(F)c(-c3cccc(N4CCCC4=O)c3)n2)CC1 [Compound 249, trans-4-((5-fluoro-4-(3-(2-oxopyrrolidin-1-yl)phenyl)pyrimidin-2-yl)amino)cyclohexane-1-carboxamide]"
6,> 6.30,"NC(=O)[C@H]1CC[C@H](Nc2ncc(F)c(-c3cccc(-c4ccc[nH]c4=O)c3)n2)CC1 [Compound 254, trans-(1r,4r)-4-((5-fluoro-4-(3-(2-oxo-1,2-dihydropyridin-3-yl)phenyl)pyrimidin-2-yl)amino)cyclohexane-1-carboxamide]"
7,> 6.30,"CC(=O)N[C@H]1CC[C@H](Nc2ncc(F)c(-c3cccc(N4CCCCC4=O)c3)n2)CC1 [Compound 256, trans-N-(4-((5-fluoro-4-(3-(2-oxopiperidin-1-yl)phenyl)pyrimidin-2-yl)amino)cyclohexyl)acetamide]"
8,> 6.30,"NC(=O)[C@H]1CC[C@H](Nc2ncc(F)c(-c3cccc(C(=O)N4CC[C@H](O)C4)c3)n2)CC1 [Compound 259, trans-(S)-4-((5-fluoro-4-(3-(3-hydroxypyrrolidine-1-carbonyl)phenyl)pyrimidin-2-yl)amino)cyclohexane-1-carboxamide]"
9,> 6.30,"CC(=O)N[C@H]1CC[C@H](Nc2ncc(F)c(-c3ccnc(N4CCCC4=O)c3)n2)CC1 [Compound 261, trans-N-(4-((5-fluoro-4-(2-(2-oxopyrrolidin-1-yl)pyridin-4-yl)pyrimidin-2-yl)amino)cyclohexyl)acetamide]"
10,> 6.30,"NC(=O)[C@H]1CC[C@H](Nc2ncc(F)c(-c3ccnc(N4CCCC4=O)c3)n2)CC1 [Compound 262, trans-(1r,4r)-4-((5-fluoro-4-(2-(2-oxopyrrolidin-1-yl)pyridin-4-yl)pyrimidin-2-yl)amino)cyclohexane-1-carboxamide]"
11,> 6.30,"NC(=O)[C@H]1CC[C@H](Nc2ncc(F)c(-c3cccc(N4CCCCC4=O)c3)n2)CC1 [Compound 264, trans-4-((5-fluoro-4-(3-(2-oxopiperidin-1-yl)phenyl)pyrimidin-2-yl)amino)cyclohexane-1-carboxamide]"
12,> 6.30,"CC(=O)N[C@H]1CC[C@H](Nc2ncc(F)c(-c3cccc(N4CCOCC4=O)c3)n2)CC1 [Compound 267, trans-N-(4-((5-fluoro-4-(3-(3-oxomorpholino)phenyl)pyrimidin-2-yl)amino)cyclohexyl)acetamide]"
13,> 6.30,"NC(=O)[C@H]1CC[C@H](Nc2ncc(F)c(-c3cccc(N4CCOCC4=O)c3)n2)CC1 [Compound 268, trans-4-((5-fluoro-4-(3-(3-oxomorpholino)phenyl)pyrimidin-2-yl)amino)cyclohexane-1-carboxamide]"
